{"source": "patent US9260461B2", "about": "“Water-soluble derivatives and prodrugs of acacetin and methods of making and using thereof” (Versitech Limited, priority 2014, dated 2016)", "key": {"[1]": {"assay": "Solubility of the purified prodrugs versus parent compound acacetin", "format": "physicochemical", "text": "Prodrug B: Light yellow solid. Yield 54%. C16H11O7PNa2 (408.21). EI-MS: m/z 387.04 [M+H—Na]^+. ^1H NMR (400 MHz, DMSO-d6): δ=12.90 (s, 1H), 8.04 (d, J=8.8 Hz, 2H), 7.10 (d, J=8.8 Hz, 2H), 7.02 (s, 1H), 6.98 (s, 1H), 6.60 (s, 1H), 3.89 (s, 3H) ppm."}, "isolated rat hearts": {"test_system": "isolated rat hearts", "assay": "Ischemia-reperfusion model in isolated rat hearts (Langendorff): coronary flow rate and contractile function", "parameters": "species or system SD rats", "details": "for coronary flow rate versus control: n=10-12", "procedure": "Male SD rats (250-300 g) were anesthetized with phenobarbital (30 mg/kg, i.p.), and the heart were isolated and mounted to a Langendorff heart perfusion apparatus via the aorta and perfused with Krebs-Henseleit solution at 37° C. gassed with 95% O2 and 5% CO2. A saline-filled latex balloon connected by a polyethylene catheter to a pressure transducer was inserted into the left ventricle via an incision on the left atrium to measure left ventricular (LV) pressure. The balloon volume was adjusted and kept at a diastolic pressure of 0-5 mm Hg following insertion. ECG was recorded with two electrodes placed at the apex and the aorta. Signals were continuously monitored and stored on an IBM compatible PC computer using a multiple channels data acquisition system (Chengdu Instrument Ltd, Chendu, China).\nA silk suture was placed around the left anterior descending artery (LAD) 2 mm distal to the left atrial appendage. A short length of polyethylene tube was placed over the suture on LAD as an occluder and the suture was pulled and the tube to ligate the coronary artery to induce regional ischemia. After a 20-min stabilization period, the hearts were treated by vehicle (DMSO control) or 0.3, 1, or 3 μM of the parent compound acacetin (0.3, 1, or 3 μM) for 10 min, and the LAD was ligated for 30-min. The ligation was released to allow for reperfusion for 2 h. Myocardial ischemia was confirmed by a decrease in left ventricular developed pressure and specific ST-T elevation on the ECG. At completing the reperfusion, the hearts were used to perform histological and/or molecular/biochemical analysis.\nHearts were excluded from the study if one of the following criteria was observed: (1) left ventricular developed pressure (LVP) was below 80 mmHg during baseline stabilization; (2) aortic wall was damaged during cannulation leading to a leakage during perfusion; or (3) hearts suffered from sustained irreversible arrhythmia during stabilization.\nTo determine the mechanisms of cardioprotection, the ischemia-reperfusion model was established in isolated rat hearts using accurate concentrations of the parent compound acacetin. The hearts perfused with the Langendorff system were exposed to 30 min ischemia (coronary ligation) followed by 120 min reperfusion (FIG. 5). After a 20 min stabilization period, the heart was treated with 0.3, 1, 3 μM acacetin, or equivolume vehicle (DMSO) for 10 min and then 30 min during ischemia."}, "myocyte apoptosis": {"test_system": "myocyte apoptosis", "assay": "TUNEL staining of myocardial slices", "parameters": "species or system rat", "details": "3 μM; vehicle 51.1±3.8%; n=5, P<0.01 vs. vehicle", "procedure": "To observe the histological changes of the ischemia-reperfusion hearts, the left ventricle was sectioned into 2-3 mm slices and drop-fixed in 10% formalin solution. After adequate fixation (a minimum 48 hours in room temperature), tissue slices were transferred into 70% ethanol for long term storage at 4° C. Tissue paraffin infiltration is processed in the tissue processor (Leica, Asp200s).\nWhen the program was complete, tissue slices with cut side down were transferred into a mold with paraffin to form a block. The tissue block was placed on a microtome (Leica, RM2125/RT, Germany) and cut into ˜5 μm slices. The tissue slices were float on the surface of 37° C. water bath until flat and then collected onto clean glass slides. […]\nTerminal deoxynucleotidyl transferase-mediated dUTP nick end labeling (TUNEL) staining of myocardial slices was performed to detect apoptosis in myocardium using the TUNEL Apoptosis detection kit (Genscript, Cat. No L00297, Piscataway, N.J., USA) according to the manufacturer's instructions. […] For quantitative analysis, TUNEL-positive cells in 10 different sectors with approximately 100-200 cells/sector were counted with high-power magnification, Axioskop 2 plus with software Axioversion (Axiovs 20v.4.8.2.0). Apoptotic cells were expressed as percentage of total cells in the field."}, "[2]": {"details": "background statement; cited from earlier work"}}, "note": "Read-outs that look alike come from different tables or passages of the source."}
{"smiles": "COc1ccc(-c2cc(=O)c3c(O)cc(O)cc3o2)cc1", "note": "[acacetin]", "values": [{"measurement": "solubility", "setting": "[1]; aqueous buffer, comparison with Tris solution pH=7.0, read-out: solubility (parent compound, compared with Prodrug A in Tris solution)", "value": "< 0.2", "unit": "µg/mL"}, {"measurement": "solubility", "setting": "[1]; water, H2O, read-out: solubility (parent compound, compared with Prodrug B in H2O)", "value": "< 0.1", "unit": "µg/mL"}, {"measurement": "coronary flow rate versus control", "setting": "isolated rat hearts; 0.3 μM, before ischemia", "value": "108.9±2.3", "unit": "%"}, {"measurement": "coronary flow rate versus control", "setting": "isolated rat hearts; 1 μM, before ischemia", "value": "122.1±4.9", "unit": "%"}, {"measurement": "increase of heart contractile function (left ventricular systolic pressure and +dP/dT)", "setting": "isolated rat hearts; 3 μM, before ischemia, n=10, P<0.01", "value": "around 10 % of control"}, {"measurement": "coronary flow rate versus control", "setting": "isolated rat hearts; 3 μM, before ischemia", "value": "125.8±6.6", "unit": "%"}, {"measurement": "improvement of reduced coronary flow rate, difference vs. vehicle", "setting": "isolated rat hearts; 3 μM, during ischemia and reperfusion, P<0.01 vs. vehicle", "value": "16-25%"}, {"measurement": "prevention of decrease of heart contractile function induced by ischemia-reperfusion, difference vs. vehicle", "setting": "isolated rat hearts; 3 μM, P<0.01 vs. vehicle", "value": "15-20%"}, {"measurement": "TUNEL-positive nuclei (percentage cell number)", "setting": "myocyte apoptosis", "value": "20.2±4.1", "unit": "%"}, {"measurement": "water solubility", "setting": "[2]", "value": "water-insoluble"}]}
